System: rats following MCAO
Assay: White matter injury, Luxol Fast Blue staining after MCAO
Type: in vivo, rat
Details: 30 days post-stroke
Procedure: MCAO surgeries were performed as described elsewhere (Vendrame M, Cassady C J, Newcomb J, Butler T, Pennypacker K R, Zigova T, et al. Stroke. 2004; 35:2390-2395). Briefly, rats were anesthetized with isoflurane, and the right common carotid and external carotid arteries were exposed using blunt dissection techniques. The vagus nerve was separated from common carotid artery and the external carotid artery was ligated proximally, and transected near the bifurcation. An embolus 40 mm in length (4.0 siliconized monofilament) was inserted into the external carotid artery and fed distally into the origin of the middle cerebral artery (˜25 mm from insertion) through the internal carotid artery. Blood samples were taken and analyzed using an i-STAT handheld analyzer for hemoglobin, hematocrit, ionized calcium, glucose, sodium, potassium, pH, pCO2, HCO3, TCO2, base excess, pO2, and O2. Cerebral blood flow was recorded using a Laser Doppler Monitor (Moor Instruments) to verify occlusion. Afterwards, the embolus was ligated permanently into the vessel and the neck incision was closed. Animals were treated with Ketoprofen IM (10 mg/kg) for three days post-surgery.
For the NAGH studies, vehicle or NAGH were prepared fresh each day. Daily subcutaneous injections (s.c) were administered beginning about 24 hours after MCAO and continued daily to about 72 hours post-surgery (FIG. 1). Animals received a total of 3 injections. A total of 84 animals were randomly assigned into 2 groups: Rats treated with vehicle (40% DMSO in sterile saline, n=42), or rats treated with 0.86 mg/kg NAGH (n=42).
To evaluate white matter injury, coronal brain sections from each the animals were stained with Luxol Fast Blue (LFB; Sigma-Aldrich). For Luxol Fast Blue (LFB) staining, slides were dehydrated in 95% ethanol and incubated in LFB solution at 56° C. overnight. The following day slides were rinsed in 95% ethanol and distilled water and differentiated in 0.1% lithium carbonate solution for 20 s followed by 70% ethyl alcohol for 30 s, and finally rinsed in distilled water. After complete gray and white matter differentiation, slides were dehydrated and placed under coverslips with DPX. The quantitative analysis for demyelination in LFB staining section was performed as described previously with some modification (Virgili, Espinosa-Parrilla et al. 2011; Yu, Gong et al. 2012). LFB stained area was measured on the randomly selected sections (n=21-23 animals/group) to assess demyelination. The extent of the LFB positive area was quantified using a pixel grayscale approach in ImageJ software (National Institute of Health, USA). […] Once calibrated, the amount of LFB staining was measured as the percentage of hemispheric area using ImageJ software.

Cl.N=C(Nc1cccc2ccccc12)Nc1cccc2ccccc12 [NAGH, N,N′-di-1-Naphthylguanidine hydrochloride]
White matter tracts (LFB) vs DMSO: white matter tracts were more intact | Percent change in LFB staining from contralateral to ipsilateral hemisphere (p<0.05 vs DMSO): −0.73+7.7% | LFB staining, ischemic hemisphere (percentage of hemispheric area) (NAGH 0.86 mg/kg s.c. x3, n=22): 10.32±0.48% | LFB staining, non-ischemic hemisphere (percentage of hemispheric area) (NAGH 0.86 mg/kg s.c. x3, n=22): 9.81±0.38%
